Columns and labels:
[1] = test system: TS progenitors; assay: Cell counts after drug treatment, TS; type: cell-based, human
Description: (§1) HSKM, TS and LTS cells were seeded in gelatin-coated six-well plates at a density of 4×10^4 cells/well and maintained with culture medium. One day after seeding, culture medium was replaced with culture medium containing either paraquat (Sigma-Aldrich; 2 μM), hydrogen peroxide (ICM Pharma; 100 μM), DTT (Thermo Fisher; 250 μM), 2-deoxyglucose (Sigma-Aldrich; 2.5 mM), KC7F2 (Sigma-Aldrich; 10 μM) or DMSO/H2O controls. For ROS modulators, cells were allowed to grow for 72 hours post-treatment, while for 2-DG, cells were allowed to grow for eight days post-treatment.

[2] = test system: LTS progenitors; assay: Cell counts after drug treatment, LTS; type: cell-based, human
Description: as §1

[3] = test system: HSKM progenitors; assay: Cell counts after drug treatment, HSKM; type: cell-based, human
Description: as §1

[4] = test system: LTS progenitors; assay: let-7 microRNA mimic transfection; type: cell-based, human
Description: HSKM, TS and LTS cells were seeded in gelatin-coated six-well plates at a density of 4×10^4 cells/well and maintained with culture medium. PEI (14.5 ng/μL), mature Mirvana hsa-let-7a-5p (#4464066; Assay ID: MC10050; Thermo Fisher) and/or hsa-let-7b-5p (#4464066; Assay ID: MC11050; Thermo Fisher) mimic (0.25 μM) or Cy5-conjugated scramble RNAi control, was mixed with serum-free DMEM to a total volume of 200 μL. This mixture was transfected onto each well.

[5] = test system: LTS progenitors; assay: qRT-PCR after ROS-modulating drugs in LTS progenitors; type: cell-based, human
Description: as §1, with “RNA was extracted by TRIzol (Thermo Fisher) and reverse transcribed with Superscript III (Thermo Fisher) according to manufacturer's instructions. The resulting cDNA was diluted 5× before performing qPCR with KAPA SYBR FAST on ABI Prism 7900HT (Applied Biosystems) according to manufacturers' instructions. HSKM,” for “HSKM,”

[6] = test system: mitochondrial ROS in HSKM, TS and LTS cells; assay: Flow cytometry oxidation state assay with mito-Grx1-roGFP2; type: cell-based, human; settings: all progenitor types (HSKM, TS, LTS); H2O2 100 μM, DTT 250 μM
Description: HSKM, TS and LTS cells were transduced with the roGFP2 retrovirus for 48 hours. Cells were allowed to expand to 15-cm tissue culture plates and then harvested for fluorescence-activated cell sorting for roGFP2+ cells using the FITC channel with a BD FACS Aria II cell sorter. HSKM, TS and LTS cells were seeded in gelatin-coated six-well plates at a density of 4×10^4 cells/well and maintained with culture medium. […] Cells were allowed to grow for 48 hours and then harvested for flow cytometry using a BD LSR Fortessa x-20 analyzer. HSKM, TS and LTS cells were used as non-fluorescent gating controls for each of their respective roGFP2+ counterparts. For each cell line, FSC, SSC, 405 nm/AmCyan and 488 nm/FITC channels were captured. FCS files were exported from FACS Diva and imported into FlowJo, where raw-value CSV files were exported. Raw values of 405 nm/488 nm ratio was calculated and then averaged for each cell line and condition.

[7] = test system: diabetic nude mice; assay: Transplantation of iMusc-Insm cells into streptozotocin diabetic nude mice; type: in vivo, mouse; settings: after streptozotocin treatment, before transplantation
Description: To determine whether differentiated iMusc-Insm cells were able to produce bioactive insulin and treat diabetes mellitus in vivo, 5×10^6 iMusc-Insm and iMusc-neo myoblast cells were transplanted by direct skeletal muscle injection into 6-8 week old male athymic nude mice (B6.Cg-Foxn1^nn/J; Jackson Labs) that have received daily intraperitoneal injections of 40 mg/kg streptozotocin (Tocris Bioscience), dissolved in 0.1M citrate buffer (pH 4.5), for 5 consecutive days, to model diabetes mellitus. Glycemia and insulinemia were measured in fed mice every 3-7 days, for 3 weeks after injection of the cells. Blood glucose was measured using a glucometer (Roche), while plasma insulin was measured by ELISA (Mercodia).

O=S(=O)(NCCSSCCNS(=O)(=O)c1cc(Cl)ccc1Cl)c1cc(Cl)ccc1Cl [KC7F2]
progenitor proliferation (cell counts) [1]: no significant effects
progenitor proliferation (cell counts) [2]: significantly suppressed LTS progenitor proliferation
progenitor proliferation (cell counts) [3]: no significant effects

hsa-let-7b-5p
effect on proliferation rate (cell counts) [4]: neither let-7a, nor let-7b, nor both, had any effect

O[C@H](CS)[C@H](O)CS (racemic) [DTT, dithiothreitol]
progenitor proliferation (cell counts) [1]: no significant effects
HIF1A targets and glycolysis genes mRNA [5]: could suppress
OxPhos mRNA levels [5]: failed to perturb
effect on mtROS [6]: most reliably reduced mtROS
progenitor proliferation (cell counts) [2]: significant suppression of LTS progenitor proliferation in a dose-dependent fashion
progenitor proliferation (cell counts) [3]: no significant effects

O=CC[C@@H](O)[C@H](O)[C@H](O)CO [2-deoxyglucose]
progenitor proliferation (cell counts) [1]: mild but significant decreases
progenitor proliferation (cell counts) [2]: mild but significant decreases
progenitor proliferation (cell counts) [3]: mild but significant decreases

CN(N=O)C(=O)N[C@H]1C(O)O[C@H](CO)[C@@H](O)[C@@H]1O (mixture of isomers) [streptozotocin]
fed glucose levels [7]: ~346 mg/dL
fed insulin levels [7]: ~63 μIU/ml

hsa-let-7a-5p
effect on proliferation rate (cell counts) [4]: neither let-7a, nor let-7b, nor both, had any effect

OO [H2O2, hydrogen peroxide]
progenitor proliferation (cell counts) [1]: no significant effects
HIF1A targets and glycolysis genes mRNA [5]: could suppress
OxPhos mRNA levels [5]: failed to perturb
effect on mtROS [6]: most reliably increased mtROS
progenitor proliferation (cell counts) [2]: significant suppression of LTS progenitor proliferation in a dose-dependent fashion
progenitor proliferation (cell counts) [3]: no significant effects
